Source: patent publication US20260234188A1, “CHEMOKINE-BINDING PEPTIDES” (Oxford University Innovation Limited, priority 2022, published 2026)
Entries after “also recorded” stand apart in the source; their conditions may differ. Ends that are not written are not given here.

Key:
[1] = target: T1, panel of 25 biotinylated chemokines (Homo sapiens, UniProt P48061); test: Phage-display screen of HD2 combinatorial mutagenesis library; type: binding; settings: CXCL12
T1 construct: purchased Almac or ProteinFoundry
T1 sequence (P48061 22-89 limits assumed): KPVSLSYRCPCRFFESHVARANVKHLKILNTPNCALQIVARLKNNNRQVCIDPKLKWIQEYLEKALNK
From the text: FIG. 20. Phage display-combinatorial mutagenesis. FIG. 20A, Tile-plot (bottom panel) showing impact of selected HD2 mutations on Δlog 2 E for all chemokines studied. Δlog 2 E is the difference in log 2 E between the parental wild-type peptide and the mutant variant following phage-display selection. See methods for a description of the strategy used for selecting individual mutations. FIG. 20B, All possible combinations of 16 selected single mutations (coloured using the Taylor scale) at 11 residue locations were combined to create a phage-display library with 3585 mutation combinations. The library included the parental HD2 sequence and single mutations as well. Library cloning, screening and analysis was performed as described in the examples.
Combinations of different mutations identified by saturation mutagenesis selection were then studied to see if they could result in additive or cooperative effects, allowing further evolution of peptide function in a desired direction. Traditionally, the selection of two or more mutations in combination is guided by knowledge of the structure of the protein-peptide interface. This approach works well when designing agents against a single target where the interface structure has been experimentally characterised but is challenging when designing agents active against multiple targets, where the interface structures have not been experimentally characterised. To systematically identify mutation combinations that work well against multiple structurally related targets we explored the possibility of using phage-display to select combinations of mutations that bind CC or XC classes of chemokines. […]
As CC and XC binding peptides appeared to have a different improving mutation spectrum we selected mutations using an algorithm that optimizes CC and XC improving mutations separately. […] The library quality was assessed by NGS AmpliconEZ (50,000 reads), and 3584 of 3585 inserts were identified. […]

CXCL12 = CXCL12 (Homo sapiens, UniProt P48061); type: cell-based; parameters: activity in inhibiting migration of activated T cells in comparison to HD2_Y5W: dose or concentration left out as unconfirmed; settings: peptides final concentration as printed, chemokine at EC80
CXCL12, sequence (P48061 22-89 limits assumed): as above
Method: FIG. 22. Effect of selected combinatorial HD2 mutations on chemotaxis. FIG. 22A. Box-whisker plot showing the effect of the exemplar single and combinatorically mutant (CM) HD2 peptides on activated-T cell (ATC) migration induced by CXCL12. All experiments were performed as at least three technical and three biological replicates, and individual data points are indicated. […] HD2SCR is a scrambled version of HD2. […] Statistically significant differences (compared to control, HD2_Y5W, coloured blue), using Dunnett's test with correction for multiple comparisons, are indicated by asterisks: ****=P≤0.0001, ***=P≤0.001, **=P≤0.01, *=P≤0.05. All comparisons were made to HD2_Y5W, as it is present in CM539, CM452, and CM304. […] Technical replicates are shown as individual data points. […] The response curve (solid blue line) and its 95% confidence interval (grey ribbon) were calculated using a 4-parameter log-logistic plot. The agonist and estimated IC50 (dotted green line) are indicated.
(§1) The J:CXCR1 cell line was generated by transfecting Jurkat cells by electroporation with PvuI-linearized plasmid D1398 and selecting with blasticidin (Sigma-Aldrich, Cat #203350, […]). […] J:CXCR1 cells were cultured in RPMI-1640 media (Gibco), supplemented with 10% FBS and 5 mM L-Glutamine with blasticidin. For J:CXCR1 migration assays, 300,000 cells/well were added to the top chamber of a 3 μm Transwell insert (Corning) in 50 μL of migration media (RPMI-1640, 0.5% FBS, 4 mM L-Glutamine, 0.05% DMSO). The bottom chamber contained 150 μL of chemokine, with or without peptide. Cells were migrated at 37° C. in 5% CO2 for 4 hours. The plate was incubated on a shaking platform for 10 minutes, 800 rpm, at 37° C., and 150 μL from the bottom of the plate transferred into a U-bottom plate containing 50 μL of migration media. Cell counts were determined by Attune NxT Flow Cytometer Plate Reader (ThermoFisher), based on cell size parameters FSC-H/SSC-H. Experiments were performed in 3 technical and 3 biological replicates. THP-1 migration assays were carried out using methods known in the art. Activated T-cell assays were carried out using methods known in the art, with the following modifications in the isolation process. Peripheral blood cells were obtained from leucocyte cones (NHS Blood Transfusion Services), following which, T-cells were isolated using two rounds of human CD8+ T-cell isolation kit (480011, BioLegend). At day 10 after activation, T-cells were frozen at 20 E6 cells/ml in TexMACS medium supplemented with 10% DMSO (D2650, Sigma) in liquid nitrogen. Prior to use, activated T-cells were recovered for 24 hours in TexMACs medium at 0.3 E6 cells/ml and incubated at 37° C. in 5% CO2. Chemokine sources are described in Supplementary information Table 3. Statistical significances between control experimental groups was evaluated using Dunnett's test. IC50 experiments were performed at the EC80 dose of chemokine. EC80 was calculated by fitting a chemokine dose-response curve with 3 parameters (fixing the top to 100%). IC50 was calculated by fitting an inhibitor response curve with 4 parameters.
Migration assays using THP1, activated T-cell (ATC) and J:CXCR1 (Jurkat cells stably transfected with CXCR1 receptor) were performed as described previously. IC50 experiments were performed at the EC80 dose of chemokine. EC80 was calculated by fitting a chemokine dose-response curve with 3 parameters (fixing the top to 100%). IC50 was calculated by fitting an inhibitor response curve with 4 parameters. R-packages used were ggupset_0.3.0, DescTools_0.99.44, and drc_3.0-1.

[2] = tested on: panel of up to 42 human chemokines; test: Phage-display next generation sequencing screen of overlapping hexadecapeptide libraries, chemokines displayed on streptavidin beads; type: binding; settings: log2E greater than 5, chemokines named by first part of UniProt Entry Name, peptides binding complement C5a (control) excluded;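 also: chemokine listed when log2 fold enrichment exceeds 5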
Summary of the method: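 Phage-display libraries of 55662 overlapping hexadecapeptides from tick and viral chemokine-binding proteins, human chemokines and chemokine receptors screened against up to 42 human chemokines, with hits found by next-generation sequencing. Peptides mapped to parent-protein position with log2 fold enrichment; regions of interest where cumulative residue log2 E exceeds the 95% upper CI of the protein median.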

CXCL9 = target: T2, CXCL9 (Homo sapiens, UniProt Q07325); test: CXCL9-induced activated T-cell migration, transwell assay; type: cell-based; settings: peptide 10 μM, chemokine at EC80
T2 construct: purchased Peprotech
T2 sequence (Q07325 23-125): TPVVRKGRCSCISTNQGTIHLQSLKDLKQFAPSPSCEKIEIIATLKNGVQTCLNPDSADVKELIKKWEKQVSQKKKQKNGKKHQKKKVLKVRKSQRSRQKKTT
Method: (§2) FIG. 2. […] BK1.2 is described in (Darlot, 2020). […] Chemokines used are indicated by the name, followed in parenthesis by the supplier code (P in supplier code indicates Peprotech). […] All experiments were performed at EC80 doses of indicated chemokine. Data are shown as box-whisker plots of three technical and three biological replicates. Statistically significant differences (compared to control, indicated by #), using Dunnett's test with correction for multiple comparisons, are indicated by asterisks: ****=P≤0.0001, ***=P≤0.001, **=P≤0.01, *=P≤0.05.
(§3) Briefly, cell migration assays use THP1 cells (human monocyte) and primary human buffy coat white cells (consisting of neutrophil granulocytes, monocytes, and lymphocytes), and activated T-cells. THP1 cells and primary monocytes respond to CCL2, CCL3, CCL5, CCL8 and CXCL4, granulocytes to CXCL1 and CXCL8, activated T-cells to CXCL9/10/11. Assays are performed in 96-well Boyden chambers, and migrated cells counted and characterized using and ATTUNE Flow Cytometer as described. Triplicate assays are performed at the EC80 dose of each chemokine at 10 μM peptide concentration.
as §1

CXCL10 = target: T3, CXCL10 (Homo sapiens, UniProt P02778); test: CXCL10-induced activated T-cell migration, transwell assay; type: cell-based; settings: peptide 10 μM, chemokine at EC80
T3 construct: purchased Peprotech
T3 sequence (P02778 22-98): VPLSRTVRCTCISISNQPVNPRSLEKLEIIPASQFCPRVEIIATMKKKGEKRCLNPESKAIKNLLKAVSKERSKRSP
Method: as §2
FIG. 11. […] Technical replicates are shown as individual data points. […] The response curve (solid blue line) and its 95% confidence interval (grey ribbon) were calculated using a 4-parameter log-logistic plot.
as §3, with “Triplicate assays are performed at the EC80 dose of each chemokine at 10 μM peptide concentration.” left out

CXCL11 = target: T4, CXCL11 (Homo sapiens, UniProt O14625); test: CXCL11-induced activated T-cell migration, transwell assay; type: cell-based; settings: peptide 10 μM, chemokine at EC80
T4 construct: purchased Peprotech
T4 sequence (O14625 22-94): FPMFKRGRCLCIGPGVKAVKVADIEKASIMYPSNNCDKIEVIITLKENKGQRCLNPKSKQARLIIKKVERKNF
Method: as §2, §3, §1

Substance | binding in phage display [1] | activity in inhibiting migration of activated T cells in comparison to HD2_Y5W (CXCL12) | Chemokines Bound [2] | inhibition of cell migration (CXCL9) | inhibition of cell migration (CXCL10) | inhibition of cell migration (CXCL11)
DDDDWDAYAPIWCYFT [CM452] | enhanced binding | significantly enhanced activity | – | – | – | –
DDDDWDDYAPITCYFD [CM539] | enhanced binding | significantly enhanced activity | – | – | – | –
DEDDWDAYAPIWCYFT-NH2 [CM304, DEDDWDAYAPIWCYFT] | enhanced binding | significantly enhanced activity | – | – | – | –
CVEITYFGDFGDPSQD [EB429] | – | – | CXL10, CXL11,; also recorded: SDF1, CXL13 | inhibit cell migration | inhibit cell migration | inhibit cell migration
